Type in all cases: cell-based
For series [1], the system named is granulocytes. Put plainly: Granulocyte survival in culture: analysis of hypodiploid nuclei by flow cytometry (propidium iodide). The settings on record: Figure 6; for IC50: isolated granulocytes cultured at 37°C, nuclear hypodiploidy, propidium iodide stain via flow cytometry, read-out: IC50 (effects on granulocyte survival). On the procedure: Whole blood anticoagulated with Acid Citrate Dextrose (ACD) with a ratio of 1:5 ACD to blood was collected (~100 ml).
Using polypropylene plastic ware, neutrophils are isolated as follows: 30 ml of the whole blood is added to 50 ml polypropylene centrifuge tubes containing 15 ml of 6% Dextran (in Saline). The blood is allowed to sediment for approximately 1 hour at room temperature.
The turbid straw colored layer harvested from the top of the cylinders into 50 ml conical polypropylene tubes. The blood cells were pelleted by centrifugation at 240 xg (Sorvall centrifuge at 1200 rpm) for 12 min. at 4°C with the brake on low.
The supernatant was aspirated and the pooled pellet resuspended in 40-50 ml cold PBS (w/o Ca, Mg), and centrifuged at 240 xg (Sorvall centrifuge at 1200 rpm) for 6 min. at 4°C with the brake on high.
The supernatant was aspirated and the pellet resuspended in 12 ml of cold cell culture grade water. The suspension was titriated gently with a pipet for 30 seconds then add 4 ml of cold 0.6 M KCl. (Brought up to 50 ml with cold PBS (w/o Ca, Mg)) and then centrifuged at 300 xg (Sorvall centrifuge at 1400 rpm) for 6 min. at 4°C with the brake on high.
The above was repeated one time.
The supernatant was aspirated and the cells resuspended in 2.5 ml cold PBS (w/o Ca, Mg). The cell suspension was layered over 3 ml Ficoll-Hypaque in a 15 ml polypropylene conical tube and centrifuged at 400 xg (Sorvall centrifuge at 1900 rpm) for 30 min. at 4°C with the brake on low.
The suspension aspirated was down to the neutrophil pellet. […]
The supernatant was aspirated and the neutrophil pellet resuspended in 4.0 ml cold PBS (w/o Ca, Mg) on ice. 10 µl of the neutrophil cell suspension was diluted with 990 µl of Trypan blue (1:100) and cells counted using a hemacytometer. The cell number and viability were determined. […]
• (50 µg/ml propidium iodide (Sigma catalog#P4170); 0.1% Triton X-100; and 0.1% sodium citrate). • Neutrophils were pelleted at 4°C and the supernate aspirated. • Neutrophils were resuspended in hypotonic fluorochrome solution at a density of 5x10^6 cells/ml. Propidium iodide fluorescence of individual nuclei was evaluated in FL2 and measured on a logarithmic scale while gating on physical parameters in forward and side scatter to exlude cell debris.
At least 10,000 events per sample were collected and the results were evaluated relative to a non-apoptotic neutrophil population. […]
The present invention provides methods to enhance the ex vivo survival of neutrophils/granulocytes. […] The presence of hypodiploid DNA is a measure of apoptosis, and is assessed using a propidium iodide stain via flow cytometry. […]
Background: Flow cytometry measures light scatter and fluorescence of single cells or particles in a stream.

In series [2] the test system is granulocytes in whole blood. The series is described as follows: Whole blood assay: survival of granulocytes by hypodiploid analysis via flow cytometry. On the procedure:
The following reagents were used: • anti-CD32-FITC monoclonal antibody obtained from Pharmingen. • Lysing Solution (10X Stock: 89.9 g NH4Cl; • 10.0 g KHCO; • 0.37 g tetrasodium EDTA; • dissolve in 1 liter dH2O. Adjust to pH 7.3. Store at 4°C in a tightly closed bottle. • Dilute 1:10 with dH2O prior to use.) • (DPBS without calcium or magnesium obtained from Irivine Scientific. • 2% fetal bovine serum in DPBS stored at 4°C. • 50 µg/ml propidium iodide in DPBS sterile filtered and stored at 4°C.)
The following protocol was followed: • 200 µl blood sample/2.8 ml 1X lysis solution in a 15 ml polypropylene conical tube. • Cap and invert to mix. Leave at room temperature for 3-5 minutes. • Centrifuge in a table-top Sorvall at 1200 rpm for 5 minutes at 4°C. • Aspirate supernate. Resuspend pellet in 200 µl/sample 2% FBS/DPBS. Add 20 µl/sample anti-CD32-FITC. Incubate 30 minutes on ice in the dark. • Add 5 ml/sample DPBS. Centrifuge at 1000 rpm for 5 minutes at 4°C. • Aspirate supemate. Resuspend pellet in 1 ml/sample 2% FBS/DPBS. • Add 3 ml/sample ice-cold 95% EtOH dropwise while vortexing gently. • Incubate samples on ice in the dark for 30 minutes. • Centrifuge at 1000 rpm for 5 minutes at 4°C. • Resuspend each sample in 50 µl 5 mg/ml RN'ase. Transfer sample to 900 µl/sample • 50 µg/ml Propidium Iodide in 12x75 mm Falcon polystyrene tubes. • Incubate on ice for 30 minutes. • Analyze samples by flow cytometry (argon laser) for forward and side scatter and fluorescence.
Survival of granulocytes in whole blood was measured by hypodiploid analysis in a similar fashion to isolated granulocytes via flow cytometry. ICE/ced-3 inhibitors of the present invention maintained survival of granulocytes in whole blood for 96 hours at room temperature as indicated in the table below: Percentage of diploid granulocytes in whole blood

Series [3] concerns granulocytes. Put plainly: Respiratory burst in isolated neutrophils measured by chemiluminescence (opsonized zymosan, lucigenin). As to conditions: Figure 7. On the procedure:
Whole blood anticoagulated with Acid Citrate Dextrose (ACD) with a ratio of 1:5 ACD to blood was collected (150 ml). Neutrophils were isolated as described above.
Opsonized zymosan was prepared by suspending 125 mg zymosan particles in 25 ml pooled human serum (5 mg/ml) and incubating them for 20 minutes at 37°C. Centrifuge the suspension and resuspend the particles in 7 ml of PBS (18 mg/ml) and stored on ice until use (vortex prior to pipetting).
50 ml of a 250 µM solution of Lucigenin (MW 510.5) was prepared by dissolving 6.4 mg of the solid in 50 ml of PBS-G (+ Ca, Mg). 10 µl of PBS-G (+ Ca, Mg) to the wells in a white 96 well plate.
50 µl of the 250 µM Lucigenin solution was added to the wells in a white 96 well plate.
Cell preparations were obatined from cell culture (concentration at time zero= 5.0 x 10^6 cells/ml) with PBS-G (+ Ca, Mg).
20 µl of the neutrophil suspension was suspended to the appropriate wells and the plate was incubated the plate at 37° C for three minutes. 10 µl of the opsonized zymosan was added to the wells.
The plate was read on the luminometer (Labsystems Luminoskan, Needham Heights, MA) for 14 min. at 37° C in the kinetic mode and record results using the software DeltaSoft.
The ability to undergo the respiratory burst is another measure of granulocyte viability. The respiratory burst is a physiological response of granulocytes to foreign stimuli such as bacteria. In this example, the method for inducing the respiratory burst utilized opsonized bacterial zymosan. The respiratory burst was measured via chemiluminescence.

The mark [4] stands for this setting: after granulocyte culture for 72 hours.
The mark [5] stands for this setting: granulocyte culture for 48 hours.

Here are results for four compounds from patent EP1647279A2, “Inhibition of apoptosis using interleukin-1beta-converting enzyme (ICE)/CED-3 family inhibitors” (priority 1996, dated 1998).

Molecules are shown by their SMILES. Residues, ends and D or L forms follow the SMILES beside them. *: point of attachment. Cbz = O=C(OCc1ccccc1)*; CH2F = FC* Bounds are passed on as bounds.

A word on the IC50: it is the concentration that gives 50% inhibition. `Cc1c(C(=O)N[C@H](C(=O)NC(CC(=O)O)C(=O)CF)C(C)C)n(C)c2ccccc12` (stereo partly shown) [Example 43, N-[(1,3-Dimethylindole-2-Carbonyl)Valinyl]-3-Amino-4-Oxo-5-Fluoropentanoic Acid]: the IC50 in the series on granulocytes [1] is less than 5 µM. Also, the “Percentage of diploid granulocytes in whole blood” value came to 91% in series [2] (96 hours at room temperature) and 96% in series [2] (time zero, 0 min). For the same compound, the respiratory burst entry was “partially maintained” in the series with granulocytes [3] (setting [4]) and “substantially maintained” with granulocytes [3] (setting [5]).

Take `O=C(O)CC(NC(=O)[C@@H]1Cc2cccc3c2N1C(=O)[C@@H](NC(=O)OCc1ccccc1)CC3)C(=O)CF` (relative stereo) [Example 106]: the IC50 in the series on granulocytes [1] is less than 5 µM.

As for `Cc1c(C(=O)N[C@H](C(=O)NC(CC(=O)O)C(=O)COC(=O)c2c(Cl)cccc2Cl)C(C)C)n(C)c2ccccc12` (stereo partly shown) [Example 70, N-[N-(1,3-Dimethyl-indole-2-carbonyl)-Valinyl]-3-amino-5-(2,6-dichlorobenzoyl)oxy-4-oxo-pentanoic acid], in the series with granulocytes [1], the IC50 was less than 5 µM. Also, the “Percentage of diploid granulocytes in whole blood” value in series [2] (96 hours at room temperature) amounted to 89%; in series [2] (time zero, 0 min), 96%. Moreover, the respiratory burst result was “partially maintained” in the series with granulocytes [3] (setting [4]) and “substantially maintained” with granulocytes [3] (setting [5]).

`COC(=O)C[C@H](NC(=O)[C@H](C)NC(=O)[C@@H](NC(=O)OCc1ccccc1)C(C)C)C(=O)CF` [zVADfmk, reference compound] (Cbz-Val-Ala-Asp(OMe)-CH2F): the “effect on improving granulocyte survival” value in the series with granulocytes [1] (isolated granulocytes in culture, at 48 hours) is “weak effect”. The respiratory burst entry in the series with granulocytes [3] (no time stated) is reported as “did not maintain the respiratory burst”.
